Experimental data reported in patent US20260224582A1, “Heterobicyclic amides as inhibitors of CD38” (Cerevance, Inc., priority 2022, published 2026).
Where two headings read alike, the source gives them in different places.

Key:
[1] = Tissue binding assay (equilibrium dialysis), plasma; assay type: in vitro ADME; conditions: mouse plasma, dialysis 4 hours at 37° C., pH 7.4
Description: [Worded in the source for another target; this target is reported under the same test.] Buffer preparation. A basic solution was prepared by dissolving 14.2 g/L Na2HPO4 and 8.77 g/L NaCl in deionized H2O. An acidic solution was prepared by dissolving 15.6 g/L NaH2PO4·2H2O and 8.77 g/L NaCl in deionized H2O. Using the acidic solution, the basic solution was then titrated to pH 7.4±0.1 and stored at 4° C. for up to 1 month. The stop solution was 100% CH3CN containing 200 ng/ml tolbutamide, 200 ng/ml labetalol and 50 ng/ml metformin.
Test method. Dialysis membrane strips were soaked in ultra-pure water at room temperature for ~1 hour. Each membrane strip containing 2 membranes was separated and soaked in 20:80 EtOH/H2O (v/v) for ~20 min, after which they were ready for use or were stored in the solution at 2-8° C. for up to 1 month. Prior to the experiment, the membrane was rinsed and soaked for 20 min in ultra-pure water. On the day of experiment, brain homogenate was thawed in a water bath at room temperature and incubated at 37° C. for 10 min before use. Test and control compounds were dissolved in DMSO to achieve 10 mM stock solutions. DMSO working solutions were prepared at 400 μM by diluting 10 μL of stock solution. To prepare the time zero (t=0) samples to be used for recovery determination, 50 μL aliquots of loading matrix were transferred in triplicate to the sample collection plate. The samples were immediately matched with opposite blank buffer to obtain a final volume of 100 μL of 1:1 matrix/dialysis buffer (v/v) in each well. 500 μL of stop solution were added to these t=0 samples. They were then stored at 2-8° C. pending further processes along with other post-dialysis samples. To load the dialysis device, an aliquot of 150 μL of the loading matrix was transferred to the donor side of each dialysis well in triplicate, and 150 μL of the dialysis buffer was loaded to the receiver side of the well. The dialysis plate was placed in a humidified incubator at 37° C. with 5% CO2 on a shaking platform that rotated slowly (about 100 rpm) for 4 hours. At the end of the dialysis, aliquots of 50 μL of samples were taken from both the buffer side and the matrix side of the dialysis device. These samples were transferred into new 96-well plates. Each sample was mixed with an equal volume of opposite blank matrix (buffer or matrix) to reach a final volume of 100 μL of 1:1 matrix/dialysis buffer (v/v) in each well. All samples were further processed by adding 500 μL of stop solution containing internal standards. The mixture was vortexed and centrifuged at 4000 rpm for about 20 min. An aliquot of 100 μL of supernatant of all the samples was then removed for LC-MS/MS analysis. The single blank samples were prepared by transferring 50 μL of blank matrix to a 96-well plate and adding 50 μL of blank PBS buffer to each well. Then the matrix-matched samples were further processed by adding 500 μL of stop solution containing internal standards, following the same sample processing method as the dialysis samples.
Data analysis. The % undiluted unbound, % undiluted bound and % recovery were calculated using the following equations: […]
where F is the analyte concentration or peak area ratio of analyte/internal standard on the buffer (receiver) side of the membrane; T is the analyte concentration or peak area ratio of analyte/internal standard on the matrix (donor) side of the membrane; To is the analyte concentration or the peak area ratio of analyte/internal standard in the loading matrix sample at time zero; and D is the dilution factor determined as 4 in this assay.

[2] = PK brain permeability after single oral gavage; assay type: in vivo, C57BL/6 mice; conditions: mice, 10 mg/kg oral, 2 hours post dose; for concentration at 2 h / Kp at 2 h: male, C57BL/6, mouse; for concentration at 2 h: po, 10 mg/kg; for Kp at 2 h: read-out: Kpu, u (unbound partitioning coefficient, Cb,u to Cp,u); for brain permeability (in words): statement on Table 3
Description: The distribution of compounds into the brain in vivo was determined in C57BL/6 mice following single oral (po) gavage administration.
Test compounds were formulated at 1 mg/mL in 0.5% HPMC E4M, 0.2% Tween 80 in water to achieve solutions or homogenous suspensions suitable for po administration. Formulations were administered to 3 male C57BL/6 mice at a volume of 10 mL/kg resulting in a dose level of 10 mg/kg. Blood samples were collected at 1 and 2 hours post dose into tubes containing K2EDTA as anticoagulant, processed to plasma and stored at −60° C. or lower until LC-MS/MS analysis. Brains were harvested 2 hours post dose, rinsed with saline, dried, weighed and homogenised under ice cold conditions. Brain homogenates were stored at −60° C. or lower until LC-MS/MS analysis.
Dose formulation concentrations were verified using a LC-UV or LC-MS/MS method. Test compound concentrations in plasma and brain homogenate were quantitatively determined using LC-MS/MS methods developed in individual matrices against calibration curves with QC samples included and acceptance criteria as per CRO SOPs. Concentrations in brain homogenate were corrected for the dilution factor used to prepare the homogenate to give concentrations in whole brain tissue.
Plasma and brain concentration versus time data were reported and plotted in excel. The brain to plasma ratio at 2 hours post dose was calculated for each animal using the following equation:
Brain: plasma=brain concentration (ng/g) at 2 h/plasma concentration (ng/ml) at 2 h As only unbound test compound is available to exert an effect on the target, unbound plasma (Cp,u) and unbound brain (Cb,u) concentrations were calculated by correcting the total concentrations for the unbound fraction in plasma (fu,p) or brain (fu,b) determined from in vitro plasma protein or brain tissue binding assays using the following equations: […]
The unbound partitioning coefficient (Kpu,u) was then calculated based on the ratio of Cb,u to Cp,u using the following equation: […]
In these studies, mice were orally administrated a 10 mg/kg dose and sacrificed 2 hours post dose and tissue samples (brain homogenate and plasma) were analyzed subsequently as described above.

[3] = brain, read-out: total brain conc.
[4] = brain, total corrected for unbound fraction in brain, read-out: free brain conc.
[5] = plasma, read-out: total plasma conc.
[6] = plasma, total corrected for unbound fraction in plasma, read-out: free plasma conc.

| SMILES | fraction unbound at 4 h [1] | concentration at 2 h [2, 3] [nM] | concentration at 2 h [2, 4] [nM] | Kp at 2 h ([2]; brain) | concentration at 2 h [2, 5] [nM] | concentration at 2 h [2, 6] [nM] | brain permeability (in words) [2] |
| --- | --- | --- | --- | --- | --- | --- | --- |
| O=C(N[C@H]1CC[C@H](N2CCC(F)(F)C2)CC1)c1cn2ncnc2c(-n2ccnc2)n1 [Example 48, N-((1r,4r)-4-(3,3-difluoropyrrolidin-1-yl)cyclohexyl)-8-(1H-imidazol-1-yl)-[1,2,4]triazolo[1,5-a]pyrazine-6-carboxamide] | 0.24 | 2570 | 403 | 0.2 | 8000 | 1980 | good brain permeability |
| O=C(N[C@H]1CC[C@H](N2CC(F)(F)C2)CC1)c1cn2ncnc2c(-n2ccnc2)n1 [Example 45, N-((1r,4r)-4-(3,3-difluoroazetidin-1-yl)cyclohexyl)-8-(1H-imidazol-1-yl)-[1,2,4]triazolo[1,5-a]pyrazine-6-carboxamide] | 0.2 | 2160 | 555 | 0.16 | 9340 | 3490 | good brain permeability |
| O=C(N[C@H]1CC[C@H](NCC(F)(F)F)CC1)c1nc(-n2ccnc2)nn2cccc12 [Example 29, 2-(1H-imidazol-1-yl)-N-((1r,4r)-4-((2,2,2-trifluoroethyl)amino)cyclohexyl)pyrrolo[2,1-f][1,2,4]triazine-4-carboxamide] | 0.044 | 4920 | 319 | 0.39 | 19100 | 840 | good brain permeability |
| O=C(N[C@H]1CC[C@H](NCC(F)(F)F)CC1)c1cn2ccnc2c(-n2ccnc2)n1 [Example 19, 8-(1H-imidazol-1-yl)-N-((1r,4r)-4-((2,2,2-trifluoroethyl)amino)cyclohexyl) imidazo[1,2-a]pyrazine-6-carboxamide] | 0.19 | 864 | 218 | 0.22 | 5010 | 954 | good brain permeability |
| O=C(N[C@H]1CC[C@H](N2CCC(F)(F)C2)CC1)c1nc(-n2ccnc2)nn2cccc12 [Example 12, N-((1r,4r)-4-(3,3-difluoropyrrolidin-1-yl)cyclohexyl)-2-(1H-imidazol-1-yl)pyrrolo[2,1-f][1,2,4]triazine-4-carboxamide] | 0.062 | 8370 | 575 | 0.79 | 12600 | 788 | good brain permeability |
| O=C(N[C@H]1CC[C@H](N2CCC(F)(F)C2)CC1)c1cn2ccnc2c(-n2ccnc2)n1 [Example 41, N-((1r,4r)-4-(3,3-difluoropyrrolidin-1-yl)cyclohexyl)-8-(1H-imidazol-1-yl) imidazo[1,2-a]pyrazine-6-carboxamide] | 0.2 | 1580 | 241 | 0.11 | 10600 | 2160 | good brain permeability |
| O=C(N[C@H]1CC[C@H](NCC(F)(F)F)CC1)c1cn2ncnc2c(-n2ccnc2)n1 [Example 20, 8-(1H-imidazol-1-yl)-N-((1r,4r)-4-((2,2,2-trifluoroethyl)amino)cyclohexyl)-[1,2,4]triazolo[1,5-a]pyrazine-6-carboxamide] | 0.14 | 1420 | 481 | 0.18 | 17900 | 2630 | good brain permeability |

Continued, values first:

| fraction unbound at 4 h [1] | concentration at 2 h [2, 3] [nM] | concentration at 2 h [2, 4] [nM] | Kp at 2 h ([2]; brain) | concentration at 2 h [2, 5] [nM] | concentration at 2 h [2, 6] [nM] | brain permeability (in words) [2] | SMILES |
| --- | --- | --- | --- | --- | --- | --- | --- |
| 0.4 | 572 | 236 | 0.09 | 6310 | 2540 | good brain permeability | O=C(N[C@H]1CC[C@H](NCC(F)(F)F)CC1)c1nc(-n2ccnc2)nc2ncccc12 [Example 4, 2-(1H-imidazol-1-yl)-N-((1r,4r)-4-((2,2,2-trifluoroethyl)amino)cyclohexyl)pyrido[2,3-d]pyrimidine-4-carboxamide] |
| 0.22 | 3380 | 189 | 0.23 | 3660 | 809 | good brain permeability | O=C(N[C@H]1CC[C@H](N2CC[C@H](F)C2)CC1)c1nc(-n2ccnc2)nn2cccc12 [Example 13, N-((1S,4r)-4-((S)-3-fluoropyrrolidin-1-yl)cyclohexyl)-2-(1H-imidazol-1-yl)pyrrolo[2,1-f][1,2,4]triazine-4-carboxamide] |
| 0.24 | 3320 | 181 | 0.19 | 3930 | 959 | good brain permeability | O=C(N[C@H]1CC[C@H](N2CC[C@@H](F)C2)CC1)c1nc(-n2ccnc2)nn2cccc12 [Example 14, N-((1R,4r)-4-((R)-3-fluoropyrrolidin-1-yl)cyclohexyl)-2-(1H-imidazol-1-yl)pyrrolo[2,1-f][1,2,4]triazine-4-carboxamide] |
| 0.3 | 1500 | 507 | 0.2 | 8220 | 2470 | good brain permeability | O=C(N[C@H]1CC[C@H](NCC(F)(F)F)CC1)c1cn2nccc2c(-n2ccnc2)n1 [Example 21, 4-(1H-imidazol-1-yl)-N-((1r,4r)-4-((2,2,2-trifluoroethyl)amino)cyclohexyl)pyrazolo[1,5-a]pyrazine-6-carboxamide] |
